Target: enzyme 5α-reductase
Assay: enzymatic in vitro method described in WO/9413691 (5α-reductase inhibition)
Type: biochemical
Settings: for IC50: concentration inhibiting by 50% the enzymatic activity, Finasteride as control product; for inhibiting activity on the enzyme 5α-reductase: verbal assessment, compared with Finasteride
Text: The three monohydroxylated products obtained by biotransformation of the azasteroid moiety using Penicillium sp. have biological activity on the enzyme 5α-reductase. For this purpose, the enzymatic in vitro method described in WO/9413691, published on June 23, 1994 has been used.

For `CC(C)(C)NC(=O)[C@H]1CC[C@H]2[C@@H]3C[C@H](O)C4NC(=O)CC[C@]4(C)[C@H]3CC[C@]12C` (stereo partly drawn) [Product 1, 17β-t-butylcarbamoyl-6a-hydroxy-4-azaandrostan-3-one], which IC50 is on record?
The IC50 was 195 nM.

And the “inhibiting activity on the enzyme 5α-reductase” value?
Its value is “poorly active”.

`CC(C)(C)NC(=O)[C@H]1C[C@H](O)[C@H]2[C@@H]3CCC4NC(=O)CC[C@]4(C)[C@H]3CC[C@@]21C` (stereo partly drawn) [Product 2, 17β-t-butylcarbamoyl-15a-hydroxy-4-azaandrostan-3-one] was tested. Which IC50 did it give?
The IC50 was 35 nM.

What about the “inhibiting activity on the enzyme 5α-reductase” value of the same compound?
The value was “strong inhibiting activity”.

How did the IC50 turn out when `CC(C)(C)NC(=O)[C@H]1CC[C@H]2[C@@H]3CC[C@H]4NC(=O)C=C[C@]4(C)[C@H]3CC[C@]12C` [Finasteride, reference compound] was run?
Its IC50 is 37 nM.

With `CC(C)(C)NC(=O)[C@H]1C[C@@H](O)[C@H]2[C@@H]3CCC4NC(=O)CC[C@]4(C)[C@H]3CC[C@@]21C` (stereo partly drawn) [Product 3, 17β-t-butylcarbamoyl-15β-hydroxy-4-azaandrostan-3-one] as the compound, how does the IC50 read?
The IC50 was 35 nM.

What about the “inhibiting activity on the enzyme 5α-reductase” value of the same compound?
The value was “strong inhibiting activity”.

Reference: patent EP0922770B1, “A microbiological process for the transformation of 17beta-carboxy substituted 3-oxo-4-azasteroids and the use of such products as inhibitors of the enzyme 5alpha-reductase” (POLI INDUSTRIA CHIMICA S.p.A., priority 1994, dated 1996)
